Assay results from ChEMBL document CHEMBL4152332, “Discovery and synthesis of novel magnolol derivatives with potent anticancer activity in non-small cell lung cancer” (Eur J Med Chem, 2018).
≈ marks a conversion by molar mass, not a printed value.

Legend:
[1] = system: Mus musculus; assay: Toxicity in Balb/c mouse implanted with mouse C26 cells assessed as change in body weight at 100 mg/kg, po qd treated for 10 days and measured every 2 days (RVB = 16.4%); type: organism-based; conditions: in vivo
[2] = system: HCC827; assay: Antiproliferative activity against human HCC827 cells after 72 hrs by MTT assay; type: functional, cell-based; conditions: HCC827, 72 h
[3] = system: NCI-H1975; assay: Antiproliferative activity against human NCI-H1975 cells after 72 hrs by MTT assay; type: functional, cell-based; conditions: NCI-H1975, 72 h
[4] = system: NCI-H460; assay: Antiproliferative activity against human H460 cells after 72 hrs by MTT assay; type: functional, cell-based; conditions: NCI-H460, 72 h
[5] = system: A549; assay: Antiproliferative activity against human A549 cells after 72 hrs by MTT assay; type: functional, cell-based; conditions: A549, 72 h
[6] = Antiproliferative activity against human SPC-A1 cells after 72 hrs by MTT assay; type: functional, cell-based; conditions: SPCA1, 72 h
[7] = system: NCI-H1650; assay: Antiproliferative activity against human NCI-H1650 cells after 72 hrs by MTT assay; type: functional, cell-based; conditions: NCI-H1650, 72 h
[8] = system: PC-9; assay: Antiproliferative activity against human PC9 cells after 72 hrs by MTT assay; type: functional, cell-based; conditions: PC-9, 72 h
[9] = system: NCI-H441; assay: Antiproliferative activity against human H441 cells after 72 hrs by MTT assay; type: functional, cell-based; conditions: NCI-H441, 72 h
[10] = system: NCI-H358; assay: Antiproliferative activity against human NCI-H358 cells after 72 hrs by MTT assay; type: functional, cell-based; conditions: NCI-H358, 72 h
[11] = Apparent aqueous solubility of the compound by HPLC analysis; type: physicochemical; conditions: aqueous solution
[12] = system: NCI-H1975; assay: Cell cycle arrest in human NCI-H1975 cells assessed as increase in accumulation at G0/G1 phase after 24 hrs by propidium iodide staining-based flow cytometric analysis; type: functional
[13] = system: NCI-H1975; assay: Cell cycle arrest in human NCI-H1975 cells assessed as reduction in accumulation at S phase after 24 hrs by propidium iodide staining-based flow cytometric analysis; type: functional
[14] = system: NCI-H1975; assay: Cell cycle arrest in human NCI-H1975 cells assessed as reduction in accumulation at G2/M phase after 24 hrs by propidium iodide staining-based flow cytometric analysis; type: functional
[15] = system: NCI-H1975; assay: Cell cycle arrest in human NCI-H1975 cells assessed as accumulation at G0/G1 phase at 5 uM after 24 hrs by propidium iodide staining-based flow cytometric analysis (reference value: 56.11%); type: functional
[16] = system: NCI-H1975; assay: Cell cycle arrest in human NCI-H1975 cells assessed as accumulation at S phase at 5 uM after 24 hrs by propidium iodide staining-based flow cytometric analysis (reference value: 22.93%); type: functional
[17] = system: NCI-H1975; assay: Cell cycle arrest in human NCI-H1975 cells assessed as accumulation at G2/M phase at 5 uM after 24 hrs by propidium iodide staining-based flow cytometric analysis (reference value: 20.11%); type: functional
[18] = system: NCI-H1975; assay: Cell cycle arrest in human NCI-H1975 cells assessed as accumulation at G0/G1 phase at 10 uM after 24 hrs by propidium iodide staining-based flow cytometric analysis (reference value: 56.11%); type: functional
[19] = system: NCI-H1975; assay: Cell cycle arrest in human NCI-H1975 cells assessed as accumulation at S phase at 10 uM after 24 hrs by propidium iodide staining-based flow cytometric analysis (reference value: 22.93%); type: functional
[20] = system: NCI-H1975; assay: Cell cycle arrest in human NCI-H1975 cells assessed as accumulation at G2/M phase at 10 uM after 24 hrs by propidium iodide staining-based flow cytometric analysis (reference value: 20.11%); type: functional
[21] = system: NCI-H1975; assay: Cell cycle arrest in human NCI-H1975 cells assessed as accumulation at G0/G1 phase at 20 uM after 24 hrs by propidium iodide staining-based flow cytometric analysis (reference value: 56.11%); type: functional
[22] = system: NCI-H1975; assay: Cell cycle arrest in human NCI-H1975 cells assessed as accumulation at S phase at 20 uM after 24 hrs by propidium iodide staining-based flow cytometric analysis (reference value: 22.93%); type: functional
[23] = system: NCI-H1975; assay: Cell cycle arrest in human NCI-H1975 cells assessed as accumulation at G2/M phase at 20 uM after 24 hrs by propidium iodide staining-based flow cytometric analysis (reference value: 20.11%); type: functional
[24] = system: NCI-H1975; assay: Induction of apoptosis in human NCI-H1975 cells after 48 hrs by annexin V/FITC-propidium iodide staining-based flow cytometric method; type: functional, cell-based
[25] = system: NCI-H1975; assay: Induction of apoptosis in human NCI-H1975 cells assessed as early apoptotic cells at 5 uM after 48 hrs by annexin V/FITC-propidium iodide staining-based flow cytometric method ( Rvb = 6.09%); type: functional
[26] = system: NCI-H1975; assay: Induction of apoptosis in human NCI-H1975 cells assessed as late apoptotic cells at 5 uM after 48 hrs by annexin V/FITC-propidium iodide staining-based flow cytometric method ( Rvb = 10.4%); type: functional
[27] = system: NCI-H1975; assay: Induction of apoptosis in human NCI-H1975 cells assessed as necrotic cells at 5 uM after 48 hrs by annexin V/FITC-propidium iodide staining-based flow cytometric method ( Rvb = 1.01%); type: functional
[28] = system: NCI-H1975; assay: Induction of apoptosis in human NCI-H1975 cells assessed as viable cells at 5 uM after 48 hrs by annexin V/FITC-propidium iodide staining-based flow cytometric method ( Rvb = 82.5%); type: functional; conditions: NCI-H1975, 48 h, read-out: Activity
[29] = system: NCI-H1975; assay: Induction of apoptosis in human NCI-H1975 cells assessed as early apoptotic cells at 10 uM after 48 hrs by annexin V/FITC-propidium iodide staining-based flow cytometric method ( Rvb = 6.09%); type: functional
[30] = system: NCI-H1975; assay: Induction of apoptosis in human NCI-H1975 cells assessed as late apoptotic cells at 10 uM after 48 hrs by annexin V/FITC-propidium iodide staining-based flow cytometric method ( Rvb = 10.4%); type: functional
[31] = system: NCI-H1975; assay: Induction of apoptosis in human NCI-H1975 cells assessed as necrotic cells at 10 uM after 48 hrs by annexin V/FITC-propidium iodide staining-based flow cytometric method ( Rvb = 1.01%); type: functional
[32] = system: NCI-H1975; assay: Induction of apoptosis in human NCI-H1975 cells assessed as viable cells at 10 uM after 48 hrs by annexin V/FITC-propidium iodide staining-based flow cytometric method ( Rvb = 82.5%); type: functional; conditions: NCI-H1975, 48 h, read-out: Activity
[33] = system: NCI-H1975; assay: Induction of apoptosis in human NCI-H1975 cells assessed as early apoptotic cells at 20 uM after 48 hrs by annexin V/FITC-propidium iodide staining-based flow cytometric method ( Rvb = 6.09%); type: functional
[34] = system: NCI-H1975; assay: Induction of apoptosis in human NCI-H1975 cells assessed as late apoptotic cells at 20 uM after 48 hrs by annexin V/FITC-propidium iodide staining-based flow cytometric method ( Rvb = 10.4%); type: functional
[35] = system: NCI-H1975; assay: Induction of apoptosis in human NCI-H1975 cells assessed as necrotic cells at 20 uM after 48 hrs by annexin V/FITC-propidium iodide staining-based flow cytometric method ( Rvb = 1.01%); type: functional
[36] = system: NCI-H1975; assay: Induction of apoptosis in human NCI-H1975 cells assessed as viable cells at 20 uM after 48 hrs by annexin V/FITC-propidium iodide staining-based flow cytometric method ( Rvb = 82.5%); type: functional; conditions: NCI-H1975, 48 h, read-out: Activity
[37] = system: HUVEC; assay: Antimigratory activity against HUVEC after 24 to 48 hrs by phase contrast/fluorescence microscopic analysis; type: functional, cell-based; conditions: Homo sapiens
[38] = Antitumor activity against mouse C26 cells implanted in Balb/c mouse assessed as tumor growth inhibition at 100 mg/kg, po qd and measured every 2 days relative to control; type: functional; conditions: 48 h, read-out: TGI
[39] = system: Mus musculus; assay: Toxicity in Balb/c mouse implanted with mouse C26 cells assessed as mouse death at 100 mg/kg, po qd treated for 10 days; type: organism-based; conditions: in vivo, 240 h
[40] = system: HCC827; assay: Potency index, ratio of IC50 for honokiol to IC50 for test compound for antiproliferative activity against human HCC827 cells after 72 hrs by MTT assay; type: functional
[41] = system: NCI-H1975; assay: Potency index, ratio of IC50 for honokiol to IC50 for test compound for antiproliferative activity against human NCI-H1975 cells after 72 hrs by MTT assay; type: functional
[42] = system: NCI-H460; assay: Potency index, ratio of IC50 for honokiol to IC50 for test compound for antiproliferative activity against human H460 cells after 72 hrs by MTT assay; type: functional
[43] = system: HCC827; assay: Potency index, ratio of IC50 for magnolol to IC50 for test compound for antiproliferative activity against human HCC827 cells after 72 hrs by MTT assay; type: functional
[44] = system: NCI-H1975; assay: Potency index, ratio of IC50 for magnolol to IC50 for test compound for antiproliferative activity against human NCI-H1975 cells after 72 hrs by MTT assay; type: functional
[45] = system: NCI-H460; assay: Potency index, ratio of IC50 for magnolol to IC50 for test compound for antiproliferative activity against human H460 cells after 72 hrs by MTT assay; type: functional

Question: With `C=CCc1ccc(O)c(-c2cc(CC=C)cc(CN3CCN(CCOC)CC3)c2O)c1` as the compound, how does the Activity [1] read?
Answer: 12.4%

Question: And the IC50 [2]?
Answer: 6.8 µM

Question: And the IC50 [3]?
Answer: 7.12 µM

Question: What about the IC50 [4] of the same compound?
Answer: 5.92 µM

Question: What about the IC50 [5] of the same compound?
Answer: 7.89 µM

Question: What about the IC50 [6] of the same compound?
Answer: 7.27 µM

Question: And the IC50 [7]?
Answer: 5.12 µM

Question: What about the IC50 [8] of the same compound?
Answer: 13.5 µM

Question: And the IC50 [9]?
Answer: 10.2 µM

Question: What about the IC50 [10] of the same compound?
Answer: 7.49 µM

Question: What about the solubility [11] of the same compound?
Answer: 0.12 mg/mL (≈ 284 µM)

Question: And the Activity [12]?
Answer: Dose-dependent effect

Question: What about the Activity [13] of the same compound?
Answer: Dose-dependent effect

Question: What about the Activity [14] of the same compound?
Answer: Dose-dependent effect

Question: What about the Activity [15] of the same compound?
Answer: 61.59%

Question: And the Activity [16]?
Answer: 17.71%

Question: What about the Activity [17] of the same compound?
Answer: 18.05%

Question: What about the Activity [18] of the same compound?
Answer: 66.25%

Question: What about the Activity [19] of the same compound?
Answer: 21.85%

Question: And the Activity [20]?
Answer: 11.15%

Question: What about the Activity [21] of the same compound?
Answer: 69.91%

Question: And the Activity [22]?
Answer: 11.17%

Question: And the Activity [23]?
Answer: 16.86%

Question: And the Activity [24]?
Answer: Dose-dependent effect

Question: What about the Activity [25] of the same compound?
Answer: 6.13%

Question: And the Activity [26]?
Answer: 22.8%

Question: And the Activity [27]?
Answer: 0.47%

Question: What about the viability at 5 µM [28] of the same compound?
Answer: 72.6%

Question: What about the Activity [29] of the same compound?
Answer: 8.79%

Question: And the Activity [30]?
Answer: 22.5%

Question: And the Activity [31]?
Answer: 0.31%

Question: What about the viability at 10 µM [32] of the same compound?
Answer: 68.4%

Question: What about the Activity [33] of the same compound?
Answer: 25.1%

Question: And the Activity [34]?
Answer: 51.1%

Question: And the Activity [35]?
Answer: 0.9%

Question: What about the viability at 20 µM [36] of the same compound?
Answer: 22.9%

Question: And the Activity [37]?
Answer: Dose-dependent effect

Question: What about the inhibition in vivo at 100 mg/kg [38] of the same compound?
Answer: 4.14%

Question: And the Activity [39]?
Answer: Non-Toxic

Question: And the “Ratio IC50” value [40]?
Answer: 4

Question: And the “Ratio IC50” value [41]?
Answer: 4

Question: What about the “Ratio IC50” value [42] of the same compound?
Answer: 4

Question: What about the “Ratio IC50” value [43] of the same compound?
Answer: 8

Question: And the “Ratio IC50” value [44]?
Answer: 8

Question: What about the “Ratio IC50” value [45] of the same compound?
Answer: 8
